Measurements reported in ChEMBL document CHEMBL4196193, “Calothrixamides A and B from the Cultured Cyanobacterium Calothrix sp. UIC 10520” (J Nat Prod, 2018).
Calls of active or inactive are those of the source. No cut-off for these calls is given here.

Assays:
Type in all cases: functional, cell-based
[1] = system: MDA-MB-231; assay: Cytotoxicity against human MDA-MB-231 cells after 72 hrs by CellTiter 96 AQueous One Solution Cell Proliferation Assay; conditions: MDA-MB-231, 72 h
[2] = system: MDA-MB-435; assay: Cytotoxicity against human MDA-MB-435 cells after 72 hrs by CellTiter 96 AQueous One Solution Cell Proliferation Assay; conditions: MDA-MB-435, 72 h
[3] = system: OVCAR-3; assay: Cytotoxicity against human OVCAR3 cells after 72 hrs by CellTiter 96 AQueous One Solution Cell Proliferation Assay; conditions: OVCAR-3, 72 h
[4] = system: MDA-MB-435; assay: Cytotoxicity against human MDA-MB-435 cells at 10 uM after 72 hrs by CellTiter 96 AQueous One Solution Cell Proliferation Assay
[5] = system: MDA-MB-231; assay: Cytotoxicity against human MDA-MB-231 cells at 10 uM after 72 hrs by CellTiter 96 AQueous One Solution Cell Proliferation Assay
[6] = system: OVCAR-3; assay: Cytotoxicity against human OVCAR3 cells at 10 uM after 72 hrs by CellTiter 96 AQueous One Solution Cell Proliferation Assay

Structure (SMILES)	IC50 [1]	IC50 [2]	IC50 [3]	Activity [4]	Activity [5]	Activity [6]
CC(=O)O[C@H]1C(=O)[C@@]2(C)[C@H]([C@H](OC(=O)c3ccccc3)[C@]3(O)C[C@H](OC(=O)[C@H](O)[C@@H](NC(=O)c4ccccc4)c4ccccc4)C(C)=C1C3(C)C)[C@]1(OC(C)=O)CO[C@@H]1C[C@@H]2O [PACLITAXEL]	2.6 nM	3.1 nM	7.5 nM	–	–	–
C=CCCCC[C@H](C)[C@@H](CCCCCCCCC(C)/C=C\C=C(/C)C(=O)N[C@@H](C)CO)OC(N)=O (some centres undefined)	–	–	–	inactive	inactive	inactive
CCCCCC[C@H](C)[C@@H](CCCCCCCCC(C)/C=C\C=C(/C)C(=O)N[C@@H](C)CO)OC(N)=O (some centres undefined)	–	–	–	inactive	inactive	inactive
